Test results: patent US11746103B2, “ALK-5 inhibitors and uses thereof” (Sumitomo Pharma Oncology, Inc., priority 2020, dated 2023)

What was measured:
[1] = system: TGF-beta induced SMAD signaling; assay: RDSR (RD SMAD reporter) Cellular Reporter Assay; format: cell-based; conditions: Homo sapiens; 200 pg/ml rhTGF-beta1, 24 h; read-out: RD-SMAD reporter activity
Source text: TGF-β signaling is triggered when the activated TGF-β homodimer binds to the TGF-β receptor 2, which in turn leads to the recruitment and phosphorylation of TGF-β receptor 1 (ALK5). Activated TGF-β receptor 1 phosphorylates the signal transduction molecules SMAD2 and SMAD3. These bind to common mediator SMAD4 and translocate to the nucleus where they bind to short conserved DNA sequences called the SMAD binding element and induce the transcription of various target genes. […] Certain example compounds were also or alternatively assayed using the RDSR Cellular Reporter Assay. Overview and Design: The RD SMAD reporter (RDSR) cell line was generated by stabily integrating the SMAD cellular reporter plasmid (Promega, pGL4.48[luc2P/SBE/Hygro]) into the human rhabdomyosarcoma cell line RD (ATCC, CCL-136). Once SMAD signaling is triggered, with, for example, the addition of TGF-β 1, receptor activated SMADs bind the SMAD binding elements (SBEs) leading to the expression of intracellular luciferase. To determine the potency of compounds at inhibiting TGF-beta induced SMAD signaling, the RDSR reporter system was utilized. The rhabdomyosarcoma line RD (ATCC, CCL-136) was transfected with a SMAD reporter vector (Promega, E3671) and a polyclonal stable cell line was selected using hygromycin B. The transfected vector contains three copies of a SMAD-binding element (SBE) that drive transcription of the luciferase reporter gene luc2P (Photinus pyralis). luc2P is a synthetically-derived luciferase sequence with humanized codon optimization that is designed for high expression and reduced anomalous transcription. The luc2P gene contains hPEST, a protein destabilization sequence, which allows luc2P protein levels to respond more quickly than those of luc2 to induction of transcription. The intracellular luciferase is quantified by the addition of equal volume (100 μl) of ONE-GLO substrate (Promega, E6120) and read within ten minutes on the Envision plate reader. The stable RDSR cell line was tested by evaluating the response to human TGF-β1 (R&D Systems, 7754-BH-005) as well as human myostatin (R&D Systems, 788-G8-010/CF) in a concentration dependent manner after twenty-four hours of stimulation. […] For compound evaluation, the tool drugs Galunisertib and Vactosertib were included as positive controls. The tool drugs and the compounds of the invention being tested were all incubated with cells for one hour at 37° C. before stimulation with 200 pg/ml rhTGF-beta1 for twenty-four hours. The activity of the reporter was determined with the addition of ONE-GLO (Promega) substrate and luminescence counts collected on the Envision plate reader (Perkin Elmer). […] The activity of compounds of the invention as determined using this method are reported in the third column of Table 1, below.

[2] = molecular target: ALK-5 (Homo sapiens (Human), UniProt P36897); assay: LanthaScreen Eu Kinase Binding Assay, ALK-5; conditions: for IC50: read-out: Kinase Inhibition: ALK5 IC50
Sequence of ALK-5 (P36897 34-503): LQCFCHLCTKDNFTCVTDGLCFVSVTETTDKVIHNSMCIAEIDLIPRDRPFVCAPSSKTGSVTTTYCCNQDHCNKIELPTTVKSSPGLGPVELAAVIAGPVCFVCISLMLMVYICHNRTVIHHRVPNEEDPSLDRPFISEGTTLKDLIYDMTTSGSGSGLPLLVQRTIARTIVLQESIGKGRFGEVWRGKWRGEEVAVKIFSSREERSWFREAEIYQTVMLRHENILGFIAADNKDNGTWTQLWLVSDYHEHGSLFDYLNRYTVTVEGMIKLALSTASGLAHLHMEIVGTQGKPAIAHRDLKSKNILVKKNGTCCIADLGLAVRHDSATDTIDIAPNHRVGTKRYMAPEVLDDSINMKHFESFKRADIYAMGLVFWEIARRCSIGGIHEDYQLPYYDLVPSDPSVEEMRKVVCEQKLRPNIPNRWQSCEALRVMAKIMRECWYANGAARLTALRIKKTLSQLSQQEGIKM
Method: Activity determinations and selectivity were conducted by Thermo Fisher Scientific “SelectScreen™ Biochemical Kinase Profiling Service” using their “LanthaScreen™ Eu Kinase Binding Assay Screening” (www.thermofisher.com/selectscreen). Binding of an Alexa Fluor™ conjugate or “tracer” to a kinase is detected by addition of a Eu-labeled anti-tag antibody. Binding of the tracer and antibody to a kinase results in a high degree of FRET, whereas displacement of the tracer with a kinase inhibitor results in a loss of FRET. This assay is carried out by mixing the compound tested with the reagents and reading, no development step is required. Life Technologies' Kinase Tracers are based on ATP-competitive kinase inhibitors, making them suitable for detection of any compounds that bind to the ATP site. Inhibitors that bind the ATP site include both Type I kinase inhibitors, which bind solely to the ATP site, and Type II inhibitors (e.g., Gleevec®/Imatinib, Sorafenib, BIRB-796), which bind to both the ATP site and a second site often referred to as the allosteric site. […] For 10 point titrations, 3-fold serial dilutions are conducted from the starting concentration (see Table 2 below). [table] All Kinase/Antibody Mixtures are diluted to a 2× working concentration in the specified kinase buffer. The 4× AlexaFluor labeled Tracer is prepared in Kinase Buffer. Bar-coded, low volume, white 384-well plate (Greiner Cat. #784207) […] 2. 3.84 μL—Kinase Buffer […] 4. 4.0 μL—4× Tracer 5. 30-second plate shake 6. 60-minute incubation at room temperature 7. […] The LanthaScreen Eu Kinase Binding Assay data is analyzed using the equations in Table 3 for each set of data points. [table] Data generated were plotted using the graphing software XLfit from IDBS. The dose response curve is curve fit to model number 205.

| IC50 [1] | Kinase Selectivity: ALK2 IC50/ ALK5 IC50 [2] | IC50 [2] | Structure (SMILES) |
| --- | --- | --- | --- |
| < 100 nM | (++) (10<ALK2/ALK5<100=[++]) | 10 to 100 nM | Cc1cccc2c(Nc3ccnc(Nc4ccc(F)c(N5CCOCC5)c4)n3)cnnc12 [EX-38, N2-(4-fluoro-3-morpholinophenyl)-N4-(8-methylcinnolin-4-yl)pyrimidine-2,4-diamine] |
| < 100 nM | (++) (10<ALK2/ALK5<100=[++]) | < 10 nM | Cc1cccc2c(Nc3ccnc(Nc4ccc(CN5CCN(C)CC5)c(C(F)(F)F)c4)n3)cnnc12 [EX-28, N4-(8-methylcinnolin-4-yl)-N2-(4-((4-methylpiperazin-1-yl)methyl)-3-(trifluoromethyl)phenyl)pyrimidine-2,4-diamine] |
| 100 to 1000 nM | (++) (10<ALK2/ALK5<100=[++]) | 10 to 100 nM | Cc1cccc2c(Nc3ccnc(Nc4cc(CC5CCNCC5)ccc4F)n3)cnnc12 [EX-16, N2-(2-fluoro-5-(piperidin-4-ylmethyl)-phenyl)-N4-(8-methyl-cinnolin-4-yl)-pyrimidine-2,4-diamine] |
| < 100 nM | (+++) (100≤ALK2/ALK5=[+++]) | < 10 nM | Cc1cccc2c(Nc3ccnc(Nc4ccc(N5CCNCC5)cc4F)n3)cnnc12 [EX-22, N2-(2-fluoro-4-(piperazin-1-yl)phenyl)-N4-(8-methylcinnolin-4-yl)pyrimidine-2,4-diamine] |
| < 100 nM | (++) (10<ALK2/ALK5<100=[++]) | < 10 nM | Cc1cccc2c(Nc3ccnc(Nc4cccc(CN5CCOCC5)c4)n3)cnnc12 [EX-47, N4-(8-methylcinnolin-4-yl)-N2-(3-(morpholinomethyl)phenyl)pyrimidine-2,4-diamine] |
| < 100 nM | (++) (10<ALK2/ALK5<100=[++]) | < 10 nM | Cc1cccc2c(Nc3ccnc(Nc4ccc(Cl)cc4)n3)cnnc12 [EX-29, N2-(4-chlorophenyl)-N4-(8-methylcinnolin-4-yl)pyrimidine-2,4-diamine] |
| 100 to 1000 nM | (+) (≤10=[+]) | < 10 nM | Cc1nnc2c(C)cccc2c1Nc1ccnc(Nc2ccc(N3CCOCC3)cc2)n1 [EX-52, N4-(3,8-dimethylcinnolin-4-yl)-N2-(4-morpholinophenyl)pyrimidine-2,4-diamine] |
| < 100 nM | (++) (10<ALK2/ALK5<100=[++]) | < 10 nM | c1cc(C2CC2)c2nncc(Nc3ccnc(Nc4ccc(N5CCOCC5)cc4)n3)c2c1 [EX-58, N4-(8-cyclopropylcinnolin-4-yl)-N2-(4-morpholinophenyl)pyrimidine-2,4-diamine] |
| < 100 nM | (++) (10<ALK2/ALK5<100=[++]) | < 10 nM | Cc1cccc2c(Nc3ccnc(Nc4ccc(N5CCN(C)CC5)cc4)n3)cnnc12 [EX-33, N4-(8-methylcinnolin-4-yl)-N2-(4-(4-methylpiperazin-1-yl)phenyl)pyrimidine-2,4-diamine] |
| < 100 nM | (++) (10<ALK2/ALK5<100=[++]) | < 10 nM | Cc1cccc2c(Nc3ccnc(Nc4ccc(N5CC6CC5CN6C)cc4)n3)cnnc12 (stereo not drawn) [EX-45, N2-(4-(5-methyl-2,5-diazabicyclo[2.2.1]heptan-2-yl)phenyl)-N4-(8-methylcinnolin-4-yl)pyrimidine-2,4-diamine] |
| < 100 nM | (++) (10<ALK2/ALK5<100=[++]) | < 10 nM | Cc1cccc2c(Nc3ccnc(Nc4ccc(CN5CCOCC5)cc4)n3)cnnc12 [EX-25, N4-(8-methylcinnolin-4-yl)-N2-(4-(morpholinomethyl)phenyl)pyrimidine-2,4-diamine] |
| < 100 nM | (+) (≤10=[+]) | < 10 nM | Cc1cccc2c(Nc3ccnc(Nc4cccc(CN5CCNCC5)c4)n3)cnnc12 [EX-31, N4-(8-methylcinnolin-4-yl)-N2-(3-(piperazin-1-ylmethyl)phenyl)pyrimidine-2,4-diamine] |
| < 100 nM | (++) (10<ALK2/ALK5<100=[++]) | < 10 nM | Cc1cccc2c(Nc3ccnc(Nc4ccc(N5CCNCC5)cc4)n3)cnnc12 [EX-48, N4-(8-methylcinnolin-4-yl)-N2-(4-(piperazin-1-yl)phenyl)pyrimidine-2,4-diamine] |
| 100 to 1000 nM | (+) (≤10=[+]) | < 10 nM | Cc1cccc2c(Nc3ccnc(Nc4cc(F)cc(CN5CCN(C)CC5)c4)n3)cnnc12 [EX-42, N2-(3-fluoro-5-((4-methylpiperazin-1-yl)methyl)phenyl)-N4-(8-methylcinnolin-4-yl)pyrimidine-2,4-diamine] |
| < 100 nM | (++) (10<ALK2/ALK5<100=[++]) | < 10 nM | Cc1cccc2c(Nc3ccnc(Nc4ccc(C5CCOCC5)cc4)n3)cnnc12 [EX-46, N4-(8-methylcinnolin-4-yl)-N2-(4-(tetrahydro-2H-pyran-4-yl)phenyl)pyrimidine-2,4-diamine] |
| 100 to 1000 nM | (+) (≤10=[+]) | < 10 nM | Cc1nnc2c(C)cccc2c1Nc1ccnc(Nc2cccc(N3CCOCC3)c2)n1 [EX-51, N4-(3,8-dimethylcinnolin-4-yl)-N2-(3-morpholinophenyl)pyrimidine-2,4-diamine] |
| 100 to 1000 nM | (++) (10<ALK2/ALK5<100=[++]) | 10 to 100 nM | Cc1cccc2c(Nc3ccnc(Nc4ccc(C(C)(C)C)cc4)n3)cnnc12 [EX-54, N2-(4-(tert-butyl)phenyl)-N4-(8-methylcinnolin-4-yl)pyrimidine-2,4-diamine] |
| 100 to 1000 nM | (++) (10<ALK2/ALK5<100=[++]) | < 10 nM | Cc1cccc2c(Nc3ccnc(Nc4ccc(CC5CCNCC5)cc4)n3)cnnc12 [EX-05, N4-(8-methylcinnolin-4-yl)-N2-(4-(piperidin-4-ylmethyl)pheny)pyrimidine-2,4-diamine] |
| < 100 nM | (+) (≤10=[+]) | < 10 nM | Cc1cccc2c(Nc3ccnc(Nc4cccc(CN5CCN(C)CC5)c4)n3)cnnc12 [EX-04, N4-(8-methyl-cinnolin-4-yl)-N2-(3-((4-methyl-piperazin-1-yl)methyl)phenyl)pyrimidine-2,4-diamine] |
| 100 to 1000 nM | (++) (10<ALK2/ALK5<100=[++]) | < 10 nM | Cc1cccc2c(Nc3ccnc(Nc4cc(CN5CCNCC5)ccc4F)n3)cnnc12 [EX-03, N2-(2-fluoro-5-(piperazin-1-yl-methyl)phenyl)-N4-(8-methyl-cinnolin-4-yl)-pyrimidine-2,4-diamine] |
| 100 to 1000 nM | (++) (10<ALK2/ALK5<100=[++]) | 10 to 100 nM | Cc1cccc2c(Nc3ccnc(Nc4ccc(N5CCN(C)CC5)cc4F)n3)cnnc12 [EX-21, N2-(2-fluoro-4-(4-methyl-piperazin-1-yl)phenyl)-N4-(8-methyl-cinnolin-4-yl)-pyrimidine-2,4-diamine] |
| < 100 nM | (+) (≤10=[+]) | < 10 nM | Cc1cccc2c(Nc3ccnc(Nc4cccc(C5CCNCC5)c4)n3)cnnc12 [EX-36, N4-(8-methylcinnolin-4-yl)-N2-(3-(piperidin-4-yl)phenyl)pyrimidine-2,4-diamine] |
